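A five-concentration, 48-hour dose response in 96-well plates underlies each endpoint, interpolated linearly between surrounding concentrations. GI50 = concentration required for 50% inhibition of growth. TGI: total growth inhibition.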
What was measured:
Assay in all cases: DTP human tumour cell line panel, 48 h
[1] = tested on: HS 578T breast
[2] = tested on: KM12 colon
[3] = tested on: M14 melanoma
[4] = tested on: MOLT-4 leukemia
[5] = tested on: RPMI-8226 leukemia
[6] = tested on: T-47D breast

Row | SMILES | GI50 [1] [µM] | TGI [1] [µM] | GI50 [2] [µM] | TGI [2] [µM] | GI50 [3] [µM] | TGI [3] [µM] | GI50 [4] [µM] | TGI [4] [µM] | GI50 [5] [µM] | TGI [5] [µM] | GI50 [6] [µM] | TGI [6] [µM]
1 | COc1cc(NS(=O)(=O)c2ccc(-c3cnc(C4CC4)o3)cc2)ccc1F | 0.376 | 23.5 | 0.277 | 18.1 | 0.269 | 14.8 | 0.564 | > 100 | 0.457 | 39.5 | 0.436 | 38.9
2 | CN1C(=O)c2ccccc2NC(=O)C12O[C@@H]2c1cccc(O)c1 (stereo partly specified) |  | > 100 |  | > 100 |  | > 100 |  | > 100 |  | > 100 |  | > 100
3 | COc1cc2c(c(OC)c1OC)-c1c(cc3c(c1OC)OCO3)C1OC2C(C)C1C (stereo unspecified) (tested in a mixture with another compound) |  | > 100 |  | > 100 |  | > 100 |  | 70.4 |  | > 100 |  | 80.2
4 | COc1cc2c3c(n(CCNCCCNCCn4c5c(c6cc(OC)c(OC)cc6c4=O)C(=O)c4ccccc4-5)c(=O)c2cc1OC)-c1ccccc1C3=O | > 49 | > 100 | 0.0754 | 0.59 | 1.38 | 6.52 |  | 0.0432 | < 0.018 | 0.614 | 2.32 | > 34.7
5 | COC(=O)[C@H](Cc1c[nH]c2ccccc12)NC(=O)[C@@H](OC)[C@@H]1Cc2cc3cc(OC4CC(OC5CC(O)C(O)C(C)O5)C(O)C(C)O4)c(C)c(O)c3c(O)c2C(=O)[C@H]1OC1CC(OC2CC(OC3CC(C)(O)C(O)C(C)O3)C(O)C(C)O2)C(O)C(C)O1 (stereo partly specified) | 0.00566 | 0.157 | 0.00558 | 1.05 | 0.0169 | 0.127 | 0.00654 |  | 0.00557 | 0.0607 | 0.0075 | > 9.76
6 | COc1ccc(C2SCC(=O)N2NC(=O)Nc2c(C)nc3ccccn23)cc1 (stereo unspecified) | 41.3 | > 100 | > 100 | > 100 | > 100 | > 100 | > 100 | > 100 | > 100 | > 100 | 26.4 | 74.9
7 | CCOC(=O)c1c(C)nc2c(c1N)/C(=C/c1ccc(OC)cc1)C(=O)N2Cc1ccc(F)cc1 | 0.479 | > 100 | 0.243 | 0.844 | 0.191 | 0.443 | 0.221 | 0.745 | 0.224 | 0.653 | 0.148 | 1.91
8 | CC[CH2][Sn]([Cl])([Cl])[CH2]CC.Oc1ccccc1C=NCCN=Cc1ccccc1O | 2.33 | 9.09 | 12.7 | 25.9 | 5.49 | 19.3 | 4.88 | > 100 | 3.35 | 8.33 | 1.09 | 2.6
9 | COc1ccc(-n2cc(-c3cc(OC)c(OC)c(OC)c3)[nH]c2=O)cc1Cl | 34.9 | > 100 | > 100 | > 100 | > 100 | > 100 | > 100 | > 100 | > 100 | > 100 | > 100 | > 100
10 | Cc1nc(-c2ccccc2)c(-c2ccccc2)s1 |  | 47.2 |  | 71.2 |  | 41.1 |  | 38.8 |  | 37.5 |  | > 100
11 | O=C(/C(=C/c1cccc([N+](=O)[O-])c1)c1ccccc1)c1ccccc1 | 3.89 | > 100 | 3.7 | 13.1 | 3.45 | 18.9 | 3.13 | 11.6 | 2.34 | 7.68 | 3.42 | 15.5
12 | O=C(/C=C\n1cnc(-c2cc(C(F)(F)F)cc(C(F)(F)F)c2)n1)NNc1cnccn1 | 0.231 | 25.7 | 0.492 | 17 | 0.311 | 9.04 | 0.0312 | > 100 | 0.0449 | > 47.3 | 0.143 | 15.7
13 | CCc1oc2ccccc2c1C(=O)c1cc(I)c(O)c(I)c1 | 2.22 | 7.41 | 1.62 | 13 | 1.24 | 5.3 | 3.33 | 26.6 | 2.33 | 30.5 | 4.56 | 20.8
14 | N#Cc1cccc(NC(=O)c2cc(-c3ccc(F)cc3F)ccc2O)c1 | 2.31 | 8.91 | 3 | 10.8 | 1.94 | 7.84 | 2.46 | 6.65 | 0.675 | 3.16 | 1.1 | 6.83
15 | COc1ncc(-c2ccc3ncnc(Nc4cccc(Cl)c4)c3c2)cc1NS(=O)(=O)CCN1CCOCC1 |  |  | 1.81 | > 100 | 0.755 | > 100 |  |  | 1.23 | > 100 | < 0.01 | 0.6
16 | COc1cc2c(c(OC)c1OC)C(=O)[C@@H]1c3ccc([N+](=O)[O-])cc3C(=O)N(CCCBr)[C@H]21 | 5.71 | 35.5 | 25.7 | > 100 | 12.1 | 33.5 | 19.8 | > 100 | 14.8 | 91.1 | 7.88 | > 100
17 | CNc1nc(N)c(N=O)c(Nc2ccc(Br)cc2)n1 |  | 65 |  | > 100 |  |  |  | > 100 |  | > 100 |  | 
18 | Cc1ccc(C(=O)Nc2ccc(CN3CCN(C)CC3)c(C(F)(F)F)c2)cc1C#Cc1cnc(N)c2ccccc12 | 0.647 | 2.07 | 0.377 | 1.08 | 0.134 | 0.701 | 0.224 | 1.28 | 0.736 | 2.08 | 0.861 | 2.3
19 | CCCCCN(CCCCC)CC(O)c1ccc(Cl)c2ccccc12 (stereo unspecified) | 10.8 | 33.9 | 6.11 | 25 | 4.51 | 18.7 | 6.69 | 24 | 6.43 | 27.6 | 4.93 | 19.4
